Values of other authors as cited in patent US20180168955A1, “IODINE-CONTAINING ORAL CARE COMPOSITIONS” (priority 2016, published 2018).

II [iodine]
volume of alcohol in which one gram of iodine dissolves (solvent alcohol): 12.5 mL
volume of water in which one gram of iodine dissolves (solvent water): 2950 mL
